Laboratory results taken from PubChem BioAssay AID1963985 (Molecular Pharmacology Branch, DTP, NCI, 2024).

Test system: 252836-082-R-J2-PDC tumor spheroids, viability
Assay: Anticancer human tumor 252836-082-R-J2-PDC patient-derived head and neck squamous cell carcinoma cell line growth inhibition [PI3K]
Conditions: spheroids with HUVEC and MSC; for IC50: curve of first compound; for viability, T/C: stronger effect = lower value
How it was run: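 High-throughput combination screen: PI3K inhibitors crossed with targeted small molecules on complex spheroids of tumor cells, HUVEC and MSCs at 37 degrees C, 5% CO2. Top concentration was at or near clinical Cmax (otherwise 10 microM), with half-log decrements.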

[1] = second compound 0.0316 µM, first compound 0.0316 µM
[2] = second compound 0.0316 µM, first compound 0.1 µM
[3] = second compound 0.0316 µM, first compound 0.316 µM
[4] = second compound 0.0316 µM, first compound 1 µM
[5] = second compound 0.0316 µM, first compound 3.16 µM
[6] = second compound 0.0316 µM, first compound 10 µM
[7] = second compound 0.1 µM, first compound 0.0316 µM
[8] = second compound 0.1 µM, first compound 0.1 µM
[9] = second compound 0.1 µM, first compound 0.316 µM
[10] = second compound 0.1 µM, first compound 1 µM
[11] = second compound 0.1 µM, first compound 3.16 µM
[12] = second compound 0.1 µM, first compound 10 µM
[13] = second compound 0.316 µM, first compound 0.0316 µM
[14] = second compound 0.316 µM, first compound 0.1 µM
[15] = second compound 0.316 µM, first compound 0.316 µM
[16] = second compound 0.316 µM, first compound 1 µM
[17] = second compound 0.316 µM, first compound 3.16 µM
[18] = second compound 0.316 µM, first compound 10 µM
[19] = second compound 1 µM, first compound 0.0316 µM
[20] = second compound 1 µM, first compound 0.1 µM
[21] = second compound 1 µM, first compound 0.316 µM
[22] = second compound 1 µM, first compound 1 µM
[23] = second compound 1 µM, first compound 3.16 µM
[24] = second compound 1 µM, first compound 10 µM
[25] = second compound 3.16 µM, first compound 0.0316 µM
[26] = second compound 3.16 µM, first compound 0.1 µM
[27] = second compound 10 µM, first compound 0.0316 µM
[28] = second compound 10 µM, first compound 0.1 µM
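Note: spheroids exposed to agents for seven days before readout.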
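Throughout, for viability, T/C: percent of vehicle DMSO control viability so 100% = untreated growth.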

CC1(C)CCC(CN2CCN(c3ccc(C(=O)NS(=O)(=O)c4ccc(NCC5CCOCC5)c([N+](=O)[O-])c4)c(Oc4cnc5[nH]ccc5c4)c3)CC2)=C(c2ccc(Cl)cc2)C1 + Cc1nc(NC(=O)N2CCCC2C(N)=O)sc1-c1ccnc(C(C)(C)C(F)(F)F)c1
IC50 (second compound 0.0316 µM): 5.42 µM
IC50 (second compound 0.1 µM): 5.2 µM
IC50 (second compound 0.316 µM): 4.13 µM
IC50 (second compound 1 µM): 4.08 µM
IC50 (second compound 3.16 µM): 2.74 µM
IC50 (second compound 10 µM): < 0.0316 µM
viability, T/C [1]: 91.7%
viability, T/C [2]: 77.8%
viability, T/C [3]: 96.2%
viability, T/C [4]: 96.8%
viability, T/C [5]: 89.8%
viability, T/C [6]: 4.76%
viability, T/C [7]: 83.1%
viability, T/C [8]: 87.5%
viability, T/C [9]: 83.2%
viability, T/C [10]: 80.9%
viability, T/C [11]: 94.4%
viability, T/C [12]: 2.88%
viability, T/C [13]: 92.8%
viability, T/C [14]: 86.1%
viability, T/C [15]: 75.5%
viability, T/C [16]: 84%
viability, T/C [17]: 64%
viability, T/C [18]: 3.65%
viability, T/C [19]: 63.6%
viability, T/C [20]: 63.6%
viability, T/C [21]: 64%
viability, T/C [22]: 65.6%
viability, T/C [23]: 63.1%
viability, T/C [24]: 3.88%
viability, T/C [25]: 59.1%
viability, T/C [26]: 53.5%
viability, T/C (second compound 3.16 µM, first compound 0.316 µM): 46.3%
viability, T/C (second compound 3.16 µM, first compound 1 µM): 55.1%
viability, T/C (second compound 3.16 µM, first compound 3.16 µM): 49.4%
viability, T/C (second compound 3.16 µM, first compound 10 µM): 2.29%
viability, T/C [27]: 32.3%
viability, T/C [28]: 39.4%
viability, T/C (second compound 10 µM, first compound 0.316 µM): 38.9%
viability, T/C (second compound 10 µM, first compound 1 µM): 34%
viability, T/C (second compound 10 µM, first compound 3.16 µM): 36.1%
viability, T/C (second compound 10 µM, first compound 10 µM): 1.57%

CC(=O)c1c(C)c2cnc(Nc3ccc(N4CCNCC4)cn3)nc2n(C2CCCC2)c1=O + Cc1nc(NC(=O)N2CCCC2C(N)=O)sc1-c1ccnc(C(C)(C)C(F)(F)F)c1
IC50 (second compound 0.0316 µM): > 0.1 µM
IC50 (second compound 0.1 µM): > 0.1 µM
IC50 (second compound 0.316 µM): > 0.1 µM
IC50 (second compound 1 µM): > 0.1 µM
IC50 (second compound 3.16 µM): < 0.000316 µM
IC50 (second compound 10 µM): < 0.000316 µM
viability, T/C (second compound 0.0316 µM, first compound 0.000316 µM): 95.6%
viability, T/C (second compound 0.0316 µM, first compound 0.001 µM): 83.4%
viability, T/C (second compound 0.0316 µM, first compound 0.00316 µM): 91.6%
viability, T/C (second compound 0.0316 µM, first compound 0.01 µM): 79.5%
viability, T/C [1]: 91.8%
viability, T/C [2]: 77.7%
viability, T/C (second compound 0.1 µM, first compound 0.000316 µM): 71.9%
viability, T/C (second compound 0.1 µM, first compound 0.001 µM): 83.8%
viability, T/C (second compound 0.1 µM, first compound 0.00316 µM): 85.7%
viability, T/C (second compound 0.1 µM, first compound 0.01 µM): 76.2%
viability, T/C [7]: 78.9%
viability, T/C [8]: 73.7%
viability, T/C (second compound 0.316 µM, first compound 0.000316 µM): 71.7%
viability, T/C (second compound 0.316 µM, first compound 0.001 µM): 74.2%
viability, T/C (second compound 0.316 µM, first compound 0.00316 µM): 80.5%
viability, T/C (second compound 0.316 µM, first compound 0.01 µM): 65.2%
viability, T/C [13]: 66.7%
viability, T/C [14]: 81.5%
viability, T/C (second compound 1 µM, first compound 0.000316 µM): 62.3%
viability, T/C (second compound 1 µM, first compound 0.001 µM): 56.3%
viability, T/C (second compound 1 µM, first compound 0.00316 µM): 52.7%
viability, T/C (second compound 1 µM, first compound 0.01 µM): 65.6%
viability, T/C [19]: 64.4%
viability, T/C [20]: 57.2%
viability, T/C (second compound 3.16 µM, first compound 0.000316 µM): 46.1%
viability, T/C (second compound 3.16 µM, first compound 0.001 µM): 45.5%
viability, T/C (second compound 3.16 µM, first compound 0.00316 µM): 39.2%
viability, T/C (second compound 3.16 µM, first compound 0.01 µM): 43.9%
viability, T/C [25]: 48.1%
viability, T/C [26]: 41.1%
viability, T/C (second compound 10 µM, first compound 0.000316 µM): 27.9%
viability, T/C (second compound 10 µM, first compound 0.001 µM): 30.6%
viability, T/C (second compound 10 µM, first compound 0.00316 µM): 25.9%
viability, T/C (second compound 10 µM, first compound 0.01 µM): 35.7%
viability, T/C [27]: 33.3%
viability, T/C [28]: 38.2%

C#Cc1c(F)ccc2cc(O)cc(-c3ncc4c(N5CC6CCC(C5)N6)nc(OCC56CCCN5CC(F)C6)nc4c3F)c12 (stereo unspecified) + COc1c(OCCCN2CCOCC2)ccc2c3n(c(=NC(=O)c4cnc(N)nc4)nc12)CCN3
IC50 (second compound 0.00316 µM): > 10 µM
IC50 (second compound 0.01 µM): > 10 µM
IC50 (second compound 0.0316 µM): 3.8 µM
IC50 (second compound 0.1 µM): < 0.0316 µM
IC50 (second compound 0.316 µM): < 0.0316 µM
IC50 (second compound 1 µM): < 0.0316 µM
viability, T/C (second compound 0.00316 µM, first compound 0.0316 µM): 75.2%
viability, T/C (second compound 0.00316 µM, first compound 0.1 µM): 79.9%
viability, T/C (second compound 0.00316 µM, first compound 0.316 µM): 105%
viability, T/C (second compound 0.00316 µM, first compound 1 µM): 76.8%
viability, T/C (second compound 0.00316 µM, first compound 3.16 µM): 72.5%
viability, T/C (second compound 0.00316 µM, first compound 10 µM): 67%
viability, T/C (second compound 0.01 µM, first compound 0.0316 µM): 76.5%
viability, T/C (second compound 0.01 µM, first compound 0.1 µM): 76.8%
viability, T/C (second compound 0.01 µM, first compound 0.316 µM): 72.2%
viability, T/C (second compound 0.01 µM, first compound 1 µM): 70%
viability, T/C (second compound 0.01 µM, first compound 3.16 µM): 60.2%
viability, T/C (second compound 0.01 µM, first compound 10 µM): 53.2%
viability, T/C [1]: 53.5%
viability, T/C [2]: 62%
viability, T/C [3]: 53.7%
viability, T/C [4]: 57.2%
viability, T/C [5]: 52.7%
viability, T/C [6]: 34.9%
viability, T/C [7]: 40.4%
viability, T/C [8]: 37.9%
viability, T/C [9]: 36.5%
viability, T/C [10]: 32.8%
viability, T/C [11]: 37.6%
viability, T/C [12]: 18.4%
viability, T/C [13]: 16.9%
viability, T/C [14]: 15.7%
viability, T/C [15]: 13.2%
viability, T/C [16]: 15.3%
viability, T/C [17]: 12.9%
viability, T/C [18]: 4.25%
viability, T/C [19]: 4.39%
viability, T/C [20]: 4.93%
viability, T/C [21]: 4.55%
viability, T/C [22]: 4.71%
viability, T/C [23]: 2.91%
viability, T/C [24]: 0.25%
